Measured values published in patent publication US20160000762A1, “IMPROVING COGNITIVE FUNCTION” (THE REGENTS OF THE UNIVERSITY OF CALIFORNIA, priority 2013, published 2016).

Assays:
[1] = Capule and Yang, 2012; Inbar et al., 2006; cited from earlier work
[2] = Cerebrovascular permeability and pharmacokinetic analysis of BTA-EG4 in mice; assay type: in vivo, male CD-1 mice; details: 10 mg/kg i.p.
Method: Cerebrovascular permeability and pharmacokinetic analysis of BTA-EG4 in wild-type mice. The partitioning of BTA-EG4 between plasma and brain was studied in male CD-1 mice. The mice were dosed with 10 mg/kg (in 10% DMSO/90% PBS) intraparitoneally (IP, n=2 per time point) and the concentration of BTA-EG4 in the plasma and brain was measured over time. Blood was collected via cardiac puncture and was pooled in EDTA tubes, centrifuged, and the plasma isolated. The brain was collected from each mouse, snap frozen, and homogenized in 2 mL PBS. The concentration of BTA-EG4 in the plasma and brain at each time point was determined by LC/MS/MS and the concentrations of BTA-EG4 in the plasma and brain were plotted as a function of time. Pharmacokinetic parameters for the plasma and brain profile of BTA-EG4 were also calculated: half-life for BTA-EG4 in the plasma and brain (t1/2), the maximum concentration (Cmax) of BTA-EG4 in the plasma and brain, the area under the concentration-time curve (AUC), the brain-to-plasma ratio (BB), and the logarithmic brain-to-plasma ratio (Log BB).

[3] = Morris water maze, wild-type mice; assay type: in vivo, wild-type (B6) mice
Source text: Morris water maze. To examine the effects of BTA-EG4 on cognitive performance, we injected wild-type (B6) mice with BTA-EG4 daily for one week, and then began behavior testing. We continued daily injections for another week, for a total treatment course of two weeks. The Morris water maze task included training mice to locate a submerged, hidden platform using extramaze visuospatial cues. This system consists of a large, white circular pool with a Plexiglas platform painted white and submerged below the surface of the water, made opaque by the addition of white non-toxic paint. During training, the platform was hidden 14 inches from the side wall in one quadrant of the maze. The animals were gently placed at random into one of the four quadrants, separated by 90°, and facing the wall. The time required (latency) to locate the hidden platform was recorded by a blinded observer and tracked using TOPSCAN, and was limited to 90 sec. Animals failing to find the platform within 90 sec were assisted to the platform. Animals were allowed to remain on the platform for 15 sec on the first trial and 10 sec on subsequent trials. 24 hrs after the final learning trial, a probe trial of 90 sec was given. We recorded the percentage of time spent in the quadrant where the platform was previously located. As a control experiment, we tested motor impairment or visual discriminative ability. The animals were required to locate a clearly visible black platform (placed in a different location), raised above the water surface, at least 12 hrs after the last trial.

APP = test system: T1, APP; test: Live cell surface immunostaining, primary hippocampal neurons; assay type: cell-based, Sprague-Dawley rats; details: 5 μM, 24 h
T1 construct: expressed in transfected cells; host or cells: primary hippocampal neurons from E19 Sprague-Dawley rats
T1 sequence (P05067 18-770): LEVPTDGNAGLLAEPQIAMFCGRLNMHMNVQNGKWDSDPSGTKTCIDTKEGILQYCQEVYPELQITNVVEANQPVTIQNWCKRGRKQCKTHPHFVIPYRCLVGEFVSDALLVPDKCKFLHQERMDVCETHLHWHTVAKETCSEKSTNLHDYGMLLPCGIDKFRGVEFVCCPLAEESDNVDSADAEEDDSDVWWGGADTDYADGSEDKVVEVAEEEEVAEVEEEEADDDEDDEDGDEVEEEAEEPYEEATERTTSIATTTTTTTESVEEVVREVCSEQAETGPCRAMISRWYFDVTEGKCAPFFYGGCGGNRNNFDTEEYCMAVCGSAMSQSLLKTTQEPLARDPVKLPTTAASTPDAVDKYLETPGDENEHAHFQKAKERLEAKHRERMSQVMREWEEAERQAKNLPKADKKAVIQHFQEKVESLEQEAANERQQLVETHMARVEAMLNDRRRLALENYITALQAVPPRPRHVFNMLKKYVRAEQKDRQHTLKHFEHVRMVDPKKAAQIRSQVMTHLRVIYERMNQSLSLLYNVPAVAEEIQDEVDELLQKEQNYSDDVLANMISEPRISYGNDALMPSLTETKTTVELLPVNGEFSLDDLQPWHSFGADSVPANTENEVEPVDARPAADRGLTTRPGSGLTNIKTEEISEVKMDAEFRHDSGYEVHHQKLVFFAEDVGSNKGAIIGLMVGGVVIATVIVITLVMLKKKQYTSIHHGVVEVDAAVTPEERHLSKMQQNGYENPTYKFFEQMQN
Method: Primary neuron culture and immunostaining. Primary hippocampal neurons from E19 Sprague-Dawley rats were cultured at 150 cells/mm^2 as previously described (Pak et al., 2001). Neurons were transfected using Lipofectamine™ 2000 (Invitrogen, Carlsbad, Calif., USA) or calcium phosphate precipitation with GFP+PLL, GFP+APP shRNA, or GFP+APP and treated with BTA-EG4. The following antibodies were used: mouse anti-GFP (Novus Biologicals, 9F9.F9), rabbit anti-GFP (Invitrogen, A11122), rabbit anti-GluR1 (Calbiochem, PC246), mouse anti-GluR2 (BD Pharmagen, 556341), mouse anti-postsynaptic density (PSD)-95 (NeuroMabs, Davis, Calif., USA), mouse anti-Synaptophysin (Sigma Aldrich, s5768), rabbit APP N-terminal (Sigma-Aldrich, A8967), anti-Ras (BD Biosciences, 610001), anti-RasGRF1 (Santa Cruz, C-20; BD Biosciences, 610149), anti-ERK1/2 (Cell Signaling, 4695), anti-p-ERK1/2 (Invitrogen, 36880), anti-CREB (Cell Signaling, D76D11), anti-p-CREB (Millipore, 06-519), and mouse anti-c-Myc (Novus Biologicals, 9E10). Cultured hippocampal neuron images were acquired by LSM 510 laser scanning confocal microscope (Zeiss). Confocal zseries image stacks encompassing entire dendrite segments were analyzed using MetaMorph software (Universal Imaging Corporation, Downington, Pa., USA).
Live cell surface immunostaining. […] Surface-labeled APP was detected with ALEXA FLUORO-555 secondary antibodies. […]

[4] = 30 mg/kg i.p., probe trial day 5

BTA-EG4
blood-brain barrier penetration [1]: can penetrate the blood-brain barrier
toxicity [1]: no toxicity
blood brain barrier crossing [2]: readily crosses the blood brain barrier
logarithmic brain-to-plasma ratio (log BB) ([2]; n=2 per time point, estimated value): 0.43
escape latency during training ([3]; 30 mg/kg i.p. daily): significantly reduced
rate of platform crossing [3, 4]: significantly higher rate
time spent in the target quadrant [3, 4]: spent more time
path length to the escape platform ([3]; 30 mg/kg i.p., training trials): no difference
swim speed ([3]; 30 mg/kg i.p., CTRL=117±3.1 mm/s, p<0.01): 130±3.6 mm/s
cell surface levels of APP (APP): increased
total levels of APP (APP): without affecting
